According to patent US20240002326A1, “COMPOUNDS AND USE THEREOF IN METHODS OF TREATMENT” (The University of Queensland, priority 2016, published 2024):

Tests used:
SOX18[109] HMG fragment = SOX18[109] HMG fragment (Mus musculus (Mouse), UniProt P43680); experiment: FP DNA-binding competition assay, SOX18[109] HMG fragment; conditions: for remaining activity at 50 µM / remaining activity at 200 µM: SOX18/DNA binding; for remaining activity at 50 µM: read-out: FP bound fraction (%) 50 μM; for remaining activity at 200 µM: read-out: FP bound fraction (%) 200 μM; for SOX18-DNA binding inhibition (FP, words): SAR library, SOX18[109]
Protocol: Mouse SOX HMG fragments. The HMG domains of mouse SOX2 (Group B), SOX11 (Group C), SOX6 (Group D), SOX9 (Group E), SOX18 (Group F) and SOX15 (Group G) were BP cloned from cDNA templates (IMAGE cDNA clone IDs: Sox18: 3967084; Sox9: 5354229; Sox4: 6822618) into a pDONRTM221 pENTRY vector, sequenced and recombined into a pETG20A or a pHisMBP expression plasmid using Gateway®LR Technology (Ng et al., 2012). Constructs were transformed into Escherichia coli BL21(DE3) cells (Luria-Bertani, 100 μg/ml Ampicillin).
(§1) The DNA-binding competition assay was performed in black 384-well plates, with mouse full length SOX18, or SOX-HMG fragments. All experiments were performed using a fluorescently-labelled Prox1-DNA element. Controls consisted of free labelled DNA (low FP milli-Polarization index, mP), labelled DNA in presence of protein (negative control, high mP), and labelled DNA and protein in presence of competing excess of unlabelled DNA (positive control, low mP)
(§2) The DNA-binding competition assay was performed in 25 uL, in black 384-well plates, using either 30 mM HEPES (N-2-Hydroxyethylpiperazine-N′-2-Ethanesulfonic Acid) (pH 7.5, with 100 mM KCl, 40 mM NaCl, 10 mM NH4OAc, […], 2 mM MgCl2, 0.5 mM EDTA, 0.01% NP-40) for mouse full length SOX18, or Tris-NaCl (10 mM Tris pH 8.0 and 100 mM NaCl) for SOX-HMG fragments. All experiments were performed using a 40 bp double-stranded Prox1-DNA element with 5′ fluorescein amidite (FAM) label (Sigma Proligo or InVitrogen). Optimum binding levels were obtained at 200 nM of mouse full length SOX18 and 60 nM of SOX-HMG fragment, in presence of 5 nM labelled DNA. Controls consisted of free labelled DNA (low FP milli-Polarization index, mP), labelled DNA in presence of protein (negative control, high mP), and labelled DNA and protein in presence of 400 time competing excess of unlabelled DNA (positive control, low mP). Depending on compound, final DMSO concentrations ranged from 2 to 3.33% v/v. After mixing protein, DNA probe and compound, plates were sealed and briskly agitated in the dark for 5 minutes at room temperature, 10 minutes at 37° C., and 30 minutes at room temperature, before reading fluorescence polarization on a Tecan M1000Pro (λexc=485 nm, λem=525 nm). All experiments were performed in triplicates.
In order to pinpoint the possible binding site of the small molecules, the FP assays were repeated with a shorter, DNA-binding centred protein fragment. The DNA binding domain of SOX TFs consists of the […] amino acid long High Mobility Group (HMG) box. The 109 amino-acid long SOX18 fragment (SOX18[109]) corresponds to residues 69-177 (numbering by mouse SOX18), which includes the HMG box (residues 78-149) and N- and C-terminal flanking sequences of 9 and 28 amino-acids, respectively.

[1] = Cytotoxicity assay (Alamar blue), HepG2; type: cell-based; conditions: human, HepG2 cells; HepG2, 24 h
[2] = Cytotoxicity assay (Alamar blue), HEK293; type: cell-based; conditions: human, HEK293 cells; HEK293, 24 h
Protocol: Cell toxicity was determined using Alamar blue, as previously described (McMillian et al., 2002). COS-7 cells were seeded as 7000 cells per well in black wall clear bottom 96-well plates in DMEM medium (Life Technologies Australia) with 10% FBS. HepG2 and HEK293 cell lines, from ATCC, were seeded as 5000 cells per well in black wall clear bottom 384-well cell culture plates in DMEM with 1% FBS. Cells were cultured for 24 h at 37° C., 5% CO2. A serial dilution of compounds was added, with a final DMSO concentration adjusted to 0.5% v/v. Cells were incubated for another 24 h. 1 Triton X-100 was used as negative control, and 0.5% DMSO as positive control. 5 μM Alamar blue was added to each well and fluorescence was measured (λexc=560 nm, λem=590 nm) after 2 h incubation at 37° C. Data were analysed using Prism software.

full-length mouse SOX18 = full-length mouse SOX18 (Mus musculus (Mouse), UniProt P43680); experiment: FP DNA-binding competition assay, full-length SOX18; conditions: full-length mouse SOX18, Prox1-DNA probe; for IC50: read-out: FP IC50 ± SD
Protocol: Full-length mouse SOX18. A N-terminally tagged mouse HIS-GST-SOX18 was recombinantly expressed in Sf9 cells, purified on GST resin (GE Healthcare Life Sciences, Sweden) and eluted in Tris buffer (50 mM Tris, 500 mM NaCl, 10 mM reduced glutathione, pH 8.0). cDNA clone of mouse Sox18 was PCR amplified and cloned into the pOPIN-GST vector, to generate N-terminally tagged HIS-GST-SOX18. A sequence verified construct was co-transfected with flashBACULTRA (Oxford Expression Technologies, Oxford, United Kingdom) baculovirus DNA onto Spodoptera frugiperda Sf9 cells to obtain recombinantly expressed HIS-GST-SOX18. High Five cells (BTI-TN-5B1-4) in Sf-900™ II serum-free medium were infected at cell density of 1.5×10^6 cells/mL with a multiplicity of infection (MOI) of 5 PFU/cell, and incubated at 21° C. for 144 h before harvest. The cell pellet from 100 mL of expression culture was resuspended in 30 mL of phosphate lysis buffer (50 mM sodium phosphate, 500 mM sodium chloride, 1% Triton X-100, 2 mM magnesium chloride, one tablet of cOmplete Protease Inhibitor Cocktail, pH 7.5) and sonicated on ice for 20 s. The cell lysate was centrifuged at 17,000×g for 40 min at 4° C. Supernatant was incubated with Benzonase Nuclease (Merck Millipore) for 1 h at room temperature for DNA degradation, before being mixed with 500 μL GST resin (GE Healthcare Life Sciences, Sweden) and incubated on a rotating wheel at room temperature for 1 h. The sample was centrifuged at 500×g for 1 min to remove unbound protein in the supernatant. The resin was further washed with 50 resin volumes (RV) wash buffer (50 mM sodium phosphate, 500 mM NaCl, pH 7.5), with unbound protein removed by centrifugation as above. Bound protein was eluted from the resin with 3×1 RV elution buffer (50 mM Tris, 500 mM NaCl, 10 mM reduced glutathione, pH 8.0), collecting the supernatant by centrifugation as above.
as §1, §2

SOX18[109] HMG fragment, sequence (P43680 69-177): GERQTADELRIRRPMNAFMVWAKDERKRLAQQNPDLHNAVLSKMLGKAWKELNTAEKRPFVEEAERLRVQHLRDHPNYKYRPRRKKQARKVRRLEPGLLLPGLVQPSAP
full-length mouse SOX18, sequence (P43680 whole entry): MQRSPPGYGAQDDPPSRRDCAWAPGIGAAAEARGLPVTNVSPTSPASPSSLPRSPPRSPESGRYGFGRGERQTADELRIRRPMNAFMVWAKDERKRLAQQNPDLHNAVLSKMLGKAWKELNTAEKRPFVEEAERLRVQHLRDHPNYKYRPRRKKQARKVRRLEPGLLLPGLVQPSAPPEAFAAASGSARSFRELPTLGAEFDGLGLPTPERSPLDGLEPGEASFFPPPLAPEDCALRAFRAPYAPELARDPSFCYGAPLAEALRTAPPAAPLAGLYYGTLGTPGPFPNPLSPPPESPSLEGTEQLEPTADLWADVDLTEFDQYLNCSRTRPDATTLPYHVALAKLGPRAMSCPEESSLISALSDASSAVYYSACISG

SMILES	remaining activity at 50 µM (SOX18[109] HMG fragment)	remaining activity at 200 µM (SOX18[109] HMG fragment)	SOX18-DNA binding inhibition (FP, words) (SOX18[109] HMG fragment)	FP IC50 ± SD (full-length mouse SOX18)	IC50 (full-length mouse SOX18)	CC50 at 24 h [1]	CC50 at 24 h [2]
O=C(O)c1c(O)cccc1CCc1ccccc1 [Sm22, 2-hydroxy-6-phenethylbenzoic acid]	98.1 ± 6.1%	93.1 ± 9.5%	completely eliminated all activity	–	–	> 100 µM	> 100 µM
CCCCCCCCCCCc1cccc(O)c1C(=O)O [Sm1, 6-undecyl salicylic acid]	–	–	–	high micromolar range	348 ± 1.1 µM	–	–
Oc1cc(CCc2ccc3ccccc3c2)cc(O)c1O [Sm44, 5-(2-(naphthalen-2-yl)ethyl)benzene-1,2,3-triol]	108 ± 10.1%	53.5 ± 9.6%	not active	–	–	> 100 µM	> 100 µM
Cc1cc(O)c(C(=O)O)c(CCc2ccc3ccccc3c2)c1 [Sm36, 2-hydroxy-4-methyl-6-(2-(naphthalen-2-yl)ethyl)benzoic acid]	10.9 ± 9.6%	-3.9 ± 6.8%	–	–	–	37.7 µM	39.9 µM
COc1cc(CCc2ccc3ccccc3c2)cc(OC)c1OC [Sm43, 2-(3,4,5-trimethoxyphenethyl)naphthalene]	106 ± 9.5%	113 ± 3.6%	–	–	–	> 100 µM	> 100 µM
CCCCCCCCCCCCCc1cccc(O)c1C(=O)O [Sm2, 6-tridecyl salicylic acid]	–	–	–	high micromolar range	341 ± 1.1 µM	–	–
COc1cc(/C=C/c2ccccc2)cc(OC)c1OC [Sm38, (E)-1,2,3-trimethoxy-5-styrylbenzene]	102 ± 11.2%	120 ± 6.6%	–	–	–	> 100 µM	> 100 µM
COc1cc(CCc2ccccc2)cc(OC)c1OC [Sm39, 1,2,3-trimethoxy-5-phenethylbenzene]	102 ± 9.7%	117 ± 8.1%	–	–	–	> 100 µM	> 100 µM
O=C(O)c1c(O)cccc1/C=C/c1ccccc1 [Sm21, (E)-2-hydroxy-6-styrylbenzoic acid]	103 ± 8.8%	98.1 ± 2.1%	–	–	–	> 100 µM	> 100 µM

Continued, in another order:

remaining activity at 50 µM (SOX18[109] HMG fragment)	remaining activity at 200 µM (SOX18[109] HMG fragment)	SOX18-DNA binding inhibition (FP, words) (SOX18[109] HMG fragment)	FP IC50 ± SD (full-length mouse SOX18)	IC50 (full-length mouse SOX18)	SMILES	CC50 at 24 h [1]	CC50 at 24 h [2]
3.9 ± 6%	10.9 ± 5.2%	–	–	–	O=C(O)c1c(O)cc(Cl)cc1/C=C/c1ccc2ccccc2c1 [Sm32, (E)-4-chloro-2-hydroxy-6-(2-(naphthalen-2-yl)vinyl)benzoic acid]	24 µM	37.6 µM
73 ± 1.9%	2 ± 7.2%	–	–	–	COc1cc(O)c(C(=O)O)c(CCc2ccc3ccccc3c2)c1 [Sm29, 2-hydroxy-4-methoxy-6-(2(naphthalen-2-yl)ethyl)benzoic acid]	71.2 µM	64.4 µM
-1.5 ± 3.5%	-3.7 ± 7.9%	–	–	–	Cc1cc(O)c(C(=O)O)c(/C=C/c2ccc3ccccc3c2)c1 [Sm35, (E)-2-hydroxy-4-methyl-6-(2-(naphthalen-2-yl)vinyl)benzoic acid]	30.3 µM	52.2 µM
99 ± 7.6%	109 ± 2.8%	–	–	–	COc1cc(CCc2ccc3ccccc3c2)c(C(=O)O)c(OC)c1 [Sm30, 2,4-dimethoxy-6-(2-(naphthalen-2-yl)ethyl)benzoic acid]	> 100 µM	> 100 µM
103 ± 7.4%	121 ± 4.7%	–	–	–	CCN(CC)C(=O)c1c(/C=C\c2ccc3ccccc3c2)cccc1OC [Sm15, (Z)-N,N-diethyl-2-methoxy-6-(2-(naphthalen-2-yl)vinyl)benzamide]	–	> 100 µM
97 ± 6.1%	92.8 ± 21.7%	–	–	–	COc1cc(/C=C/c2ccc3ccccc3c2)c(C(=O)O)c(OC)c1 [Sm27, (E)-2,4-dimethoxy-6-(2-(naphthalen-2-yl)vinyl)benzoic acid]	> 100 µM	> 100 µM
99.3 ± 6.2%	109 ± 4.9%	–	–	–	CCN(CC)C(=O)c1c(/C=C/c2ccc3ccccc3c2)cccc1OC [Sm16, (E)-N,N-diethyl-2-methoxy-6-(2-(naphthalene-2-yl)vinyl)benzamide]	–	> 100 µM
